Reference: patent publication US20260345619A1 (Principia Biopharma Inc., priority 2023, published 2026)

What was measured:
[1] = Time to LOAC post-randomization (Cox regression, Kaplan-Meier); type: in vivo, human
Excerpt: Time to LOAC post-randomization was to be analyzed using a Cox regression model with treatment (Cox 1972), baseline IgE strata, and region (pooled country) as covariates. The Kaplan-Meier (KM) method was to be used to estimate the probabilities of the event at specific time points for each treatment group (Kaplan and Meier 1958). Nominal p-value from log-rank test stratified by baseline IgE strata and region was also to be provided.

[2] = Participants with ≥2, ≥3, ≥4, ≥5 additional reliever puffs of salbutamol/albuterol or levosalbutamol/levalbuterol; type: in vivo, human; settings: for Number of participants with ≥2 additional reliever puffs vs baseline on 2 consecutive days / Number of participants with ≥3 additional reliever puffs vs baseline on 2 consecutive days / Number of participants with ≥4 additional reliever puffs vs baseline on 2 consecutive days / Number of participants with ≥5 additional reliever puffs vs baseline on 2 consecutive days / Participants with ≥2 additional reliever puffs vs baseline on 2 consecutive days, figure in parentheses (share) / Participants with ≥3 additional reliever puffs vs baseline on 2 consecutive days, figure in parentheses (share) / Participants with ≥4 additional reliever puffs vs baseline on 2 consecutive days, figure in parentheses (share) / Participants with ≥5 additional reliever puffs vs baseline on 2 consecutive days, figure in parentheses (share): 12-week treatment period
Description: An analysis was performed on the number of participants with ≥2, ≥3, ≥4, and ≥5 additional reliever puffs of salbutamol/albuterol or levosalbutamol/levalbuterol compared with baseline on 2 consecutive days during the treatment period, to assess increase in reliever medication during 12-week treatment period.

[3] = Participant disposition: completion, discontinuation and reasons; type: in vivo, human
Excerpt: Participants that met the criteria for a LOAC, at any time during the randomized IMP treatment phase, were to (be): • Discontinue early from IMP treatment, • Evaluated and receive treatment by the Investigator with standard of care according to standard medical practice. If practicable and safe, the participant was to undergo EOT Visit (Visit 14) assessment prior to the administration of rescue medications. • Resume their individual prescreening ICS/LABA background therapy and, • Followed for safety during a 4-week Post IMP Treatment Period.
Participants who discontinued IMP treatment prior to completing the 12-week IMP treatment (due to LOAC or due to early treatment discontinuation), were to be evaluated as soon as possible at the individual participant's EOT Visit and using procedures as planned for the EOT Visit at Week 12 (Visit 14). At their EOT visit, participants were to resume their prescreening ICS/LABA background therapy or appropriate therapy as needed per treating physician were to be resumed after the EOT study assessments had been performed and entered the 4-week safety follow-up period/Post IMP Treatment Period, concluding with the EOS Visit (Visit 16).

[4] = tested on: 251 kinases sharing a common cysteine in their active site; settings: cited from earlier work
[5] = biological target: tyrosine protein kinase TEC; settings: cited from earlier work
[6] = tested on: B cell lymphocyte kinase (BLK); settings: cited from earlier work
other TEC family members = settings: preclinical assays; cited from earlier work
[7] = humans, oral; cited from earlier work
BTK = settings: over 24 h; cited from earlier work
[8] = 400 mg BID cohort, N = 32, mITT
[9] = 400 mg TID cohort, N = 64, mITT

## CC(C)(C=C(C#N)C(=O)N1CCC[C@@H](n2nc(-c3ccc(Oc4ccccc4)cc3F)c3c(N)ncnc32)C1)N1CCN(C2COC2)CC1 (mixture of isomers) [rilzabrutinib, (R)-2-[3-[4-amino-3-(2-fluoro-4-phenoxy-phenyl)pyrazolo[3,4-d]pyrimidin-1-yl]piperidine-1-carbonyl]-4-methyl-4-[4-(oxetan-3-yl)piperazin-1-yl]pent-2-enenitrile]
[1]; [8]
  Number of participants censored: 20
  Number of participants with LOAC (time-to-LOAC analysis): 12
  Percentage of participants censored: (62.5)
  Percentage of participants with LOAC (time-to-LOAC analysis): (37.5)
[1]; 400 mg BID cohort, mITT, 95% CI (0.059, 0.309)
  Probability of LOAC at Week 4: 0.161
[1]; 400 mg BID cohort, mITT, 95% CI (0.125, 0.429)
  Probability of LOAC at Week 9: 0.265
[1]; 400 mg BID cohort, mITT, 95% CI (0.243, 0.607)
  Probability of LOAC at Week 12: 0.432
[1]; 400 mg BID cohort, mITT, 95% CI (0.352, 1.595)
  HR vs. placebo, time to LOAC: 0.750
[1]; 400 mg BID cohort, mITT, 95% CI (19.0, 84.0)
  Q1 of time to LOAC: 55.0 days
[1]; [9]
  Number of participants censored: 52
  Number of participants with LOAC (time-to-LOAC analysis): 12
  Percentage of participants censored: (81.3)
  Percentage of participants with LOAC (time-to-LOAC analysis): (18.8)
[1]; 400 mg TID cohort, mITT, 95% CI (0.001, 0.080)
  Probability of LOAC at Week 4: 0.017
[1]; 400 mg TID cohort, mITT, 95% CI (0.077, 0.261)
  Probability of LOAC at Week 9: 0.156
[1]; 400 mg TID cohort, mITT, 95% CI (0.117, 0.325)
  Probability of LOAC at Week 12: 0.211
[1]; 400 mg TID cohort, mITT, 95% CI (0.327, 1.408)
  HR vs. placebo, time to LOAC: 0.679
[2]; 400 mg BID, N = 32
  Number of participants with ≥2 additional reliever puffs vs baseline on 2 consecutive days: 6 participants
  Number of participants with ≥3 additional reliever puffs vs baseline on 2 consecutive days: 3 participants
  Number of participants with ≥4 additional reliever puffs vs baseline on 2 consecutive days: 2 participants
  Number of participants with ≥5 additional reliever puffs vs baseline on 2 consecutive days: 2 participants
  Participants with ≥2 additional reliever puffs vs baseline on 2 consecutive days, figure in parentheses (share): 18.8
  Participants with ≥3 additional reliever puffs vs baseline on 2 consecutive days, figure in parentheses (share): 9.4
  Participants with ≥4 additional reliever puffs vs baseline on 2 consecutive days, figure in parentheses (share): 6.3
  Participants with ≥5 additional reliever puffs vs baseline on 2 consecutive days, figure in parentheses (share): 6.3
[2]; 400 mg TID, N = 64
  Number of participants with ≥2 additional reliever puffs vs baseline on 2 consecutive days: 11 participants
  Number of participants with ≥3 additional reliever puffs vs baseline on 2 consecutive days: 4 participants
  Number of participants with ≥4 additional reliever puffs vs baseline on 2 consecutive days: 3 participants
  Number of participants with ≥5 additional reliever puffs vs baseline on 2 consecutive days: 1 participants
  Participants with ≥2 additional reliever puffs vs baseline on 2 consecutive days, figure in parentheses (share): 17.2
  Participants with ≥3 additional reliever puffs vs baseline on 2 consecutive days, figure in parentheses (share): 6.3
  Participants with ≥4 additional reliever puffs vs baseline on 2 consecutive days, figure in parentheses (share): 4.7
  Participants with ≥5 additional reliever puffs vs baseline on 2 consecutive days, figure in parentheses (share): 1.6
[2]; both cohorts, vs. placebo arms, 12-week treatment
  number of participants with ≥2 to 5 additional reliever puffs compared to baseline: lower in the rilzabrutinib arms compared to the placebo arms
[3]; 400 mg BID (N = 32)
  Status at last contact: Dead: 0 n (%)
  permanent study intervention discontinuation: Adverse event: 2 (6.3) n (%)
  permanent study intervention discontinuation: Adverse event not related to COVID-19: 2 (6.3) n (%)
  permanent study intervention discontinuation: Adverse event related to COVID-19: 0 n (%)
  permanent study intervention discontinuation: Lack of efficacy: 0 n (%)
  permanent study intervention discontinuation: Loss of asthma control (LOAC): 8 (25.0) n (%)
  study discontinuation: Adverse event: 1 (3.1) n (%)
  study intervention withdrawal by subject: Adverse event: 1 (3.1) n (%)
[3]; 400 mg TID (N = 64)
  Status at last contact: Dead: 0 n (%)
  permanent study intervention discontinuation: Adverse event: 5 (7.8) n (%)
  permanent study intervention discontinuation: Adverse event not related to COVID-19: 2 (3.1) n (%)
  permanent study intervention discontinuation: Adverse event related to COVID-19: 3 (4.7) n (%)
  permanent study intervention discontinuation: Lack of efficacy: 1 (1.6) n (%)
  permanent study intervention discontinuation: Loss of asthma control (LOAC): 10 (15.6) n (%)
  study discontinuation: Adverse event: 0 n (%)
  study intervention withdrawal by subject: Adverse event: 2 (3.1) n (%)
[4]; 1 μM, panel of 251 kinases
  number of kinases inhibited (>90% inhibition): 6 kinases
[4]; in comparison to first and second generation BTKi
  cross-reactivity with other molecules: minimal cross-reactivity
[5]
  IC50: 0.8 nM
[6]
  IC50: 6.3 nM
Other TEC family members
  binding to other TEC family members over time: decayed rapidly over time
[7]
  absorption: rapidly absorbed
  half-life: 3 to 4 h
  pharmacokinetic variability: variable pharmacokinetics
BTK
  sustained target occupancy: high sustained occupancy over 24 h
